Legend:
[1] = tested on: keratinization in hamster tracheal organ culture; test: tracheal organ culture assay: reversal of keratinization in hamster tracheal organ culture; type: cell-based; details: 10 days in culture
Experimental: (§1) The ODC assay measures a compound's effect on the prevention of the induction of ODC. The tracheal organ culture assay measures a compound's ability to reverse keratinization. For comparison purposes retinoic acid was also tested by these assays.
The tracheal organ culture assay is carried out as follows. Tracheas are taken from hamsters that are in very early stages of vitamin A deficiency and placed in organ culture. At the time of culture, the animals are still gaining weight; the tracheal epithelium is generally low columnar or cuboidal, with only occasional patches of squamous metaplasia. Each trachea is opened from the larynx to the carina along the membranous dorsal wall and cultured in a serum-free medium (CMRL-1066; with crystalline bovine insulin, 0.1 μg/ml; hydrocortisone hemisuccinate, 0.1 μg/ml; glutamine, 2 mM; penicillin, 100 units/ml; and streptomycin,100 μg/ml, added). Cultures are gassed with 50% oxygen, 45% nitrogen, and 5% CO2. The culture dishes are rocked at 35.5-36.0 degrees to allow the tracheas contact with both gas and medium. All tracheas are grown in medium containing no retinoid for the first 3 days. At the end of 3 days, some tracheas are harvested; almost all of these tracheas have significant squamous metaplasia, and approximately 60% have keratinized lesions. The remaining tracheas are then divided into different groups which are treated with either: (1) retinoid dissolved in dimethylsulfoxide (final concentration of DMSO in culture medium is never greater than 0.1%) or (2) an equivalent amount of DMSO alone. Culture medium is changed three times a week, and all of the remaining tracheas are harvested at the end of 10 days in culture. Tracheas are fixed in 10% buffered formalin and embedded in paraffin. Cross sections of five micrometers are made through the mid-portion, stained with hematoxylin and eosin, and then scored with a microscope for the presence of keratin and keratohyaline granules, both of which are found in approximately 90% of control cultures that received no retinoid for the entire 10 day culture period.

ornithine decarboxylase = test: ODC assay: inhibition of induction of ornithine decarboxylase by 12-O-tetradecanoylphorbol-13-acetate in mouse skin; type: in vivo, mouse (female Charles River CD-1); details: topical, 1 hour before TPA (17 nmol)
Experimental: as §1
The ODC assay is carried out as follows. Female Charles River CD-1 mice from Charles River Breeding Laboratories, Wilmington, Mass., are used (age 7 to 9 weeks). The dorsal hair of the mice is shaved 1 to 2 days before testing, and only mice showing no hair regrowth are used. A single dose of 12-O-tetradecanoylphorbol-13-acetate (TPA) (10.5 μg, 17 nmol) in 0.2 mL of acetone is applied topically to the back of each mouse. The test compound, at one of three dose levels (1.7, 17, and 170 nmol), dissolved in 0.2 mL of acetone is applied 1 hour before the TPA treatment to the test groups; the control group is treated with acetone alone. The mice are killed by cervical dislocation five hours after TPA treatment. Determinations are done in triplicate.
The epidermis is obtained from the sacrificed animals. To obtain sufficient material, the dorsal skins from 2 to b 3 mice in each treatment group are pooled. The depilatory agent Nudit® (Helena Rubinstein, New York) is applied to the shaved area of the skin; after 5 minutes, it is washed off thoroughly with cold tap water. […]
The supernatant fraction remaining after centrifugation of the homogenate at 10,000×g for 30 seconds at 0° C. is used for the enzyme assay. Enzyme activity is determined using the microassay for ODC as described by Verma and Boutwell to measure the release of ^14 CO2 from DL-[1-^14 C]-ornithine (58 mCi/mmol) after incubation with the 10,000×g supernatant. […]
Radioactivity is measured using a toluene-based scintillant (4 g of PPO and 50 mg of POPOP/L of toluene) in a Beckman LS-250 liquid scintillation counter. Enzyme activity is determined in triplicate and expressed as nanomoles of CO2 released in 30 minutes per milligram of protein. […] The protein concentrations of the epidermal extracts are determined by the Lowry procedure, using bovine serum albumin as the standard.

SMILES	Reversal of Keratinization, Active Cultures (%) ([1]; 10^-9 M)	Reversal of Keratinization, Active/Total Cultures ([1]; 10^-9 M)	Reversal of Keratinization, Active Cultures (%) ([1]; 10^-10 M)	Reversal of Keratinization, Active/Total Cultures ([1]; 10^-10 M)	Inhibition of Induction of Ornithine Decarboxylase by 12-O-Tetradecanoylphorbol-13-acetate in Mouse Skin, % Inhibition of Control (ornithine decarboxylase; dose 1.7 nmol)	Inhibition of Induction of Ornithine Decarboxylase by 12-O-Tetradecanoylphorbol-13-acetate in Mouse Skin, % Inhibition of Control (ornithine decarboxylase; dose 17 nmol) [%]	Reversal of Keratinization, Active Cultures (%) ([1]; 10^-8 M)	Reversal of Keratinization, Active/Total Cultures ([1]; 10^-8 M)
[2H]C([2H])([2H])C1=C(/C=C/C(C)=C/C=C/C(C)=C/C(=O)O)C(C)(C)CCC1([2H])[2H] [(E)-retinoic acid-4,4,18,18,18-d5]	100	8/8	86	6/7	90%	90	–	–
CC1=C(/C=C/C(C)=C/C=C/C(C)=C/C(=O)O)C(C)(C)CCC1 [(E)-retinoic acid]	88	419/474	52	134/256	87-91%	–	100	236/236

Source: patent US4529600A, “Pentadeuterioretinoids” (SRI International, priority 1982, dated 1985)
